Laboratory results reported in patent publication US7501454B2, “Cyclohexenone compounds from Antrodia camphorata to treat autoimmune diseases” (Golden Biotechnology Corporation, priority 2007, dated 2009).

How the values were obtained:
[1] = tested on: female NZB/WF1 SLE mice; assay: Changes of proteinuria in female NZB/WF1 SLE mice (Bio-Rad protein assay of urine); type: in vivo; settings: for proteinuria level: negative control 246 mg/dl
Method: (§1) Female NZB/WF1 mice spontaneously develop human SLE-like syndromes, such as generation of antinuclear autoantibodies, proteinuria, and renal toxicity to cause death. The disease is more severe in female mice than in male mice; the morbidity of female mice is also higher than that of male mice. Therefore, female NZB/WF1 mice were used for screening anti-SLE drugs in this study.
(§2) Thirty female NZB/WF1 mice (purchased from Jackson Lab, USA) between 12-24 weeks of age were analyzed biweekly to determine proteinuria levels, monthly to assess the titers of antinuclear autoantibody (ANA). The increased titers of ANA and positive response implicated that female NZB/WF1 mice were going to develop SLE and were ready for grouping. At 22 weeks of age, the animals showing the abovementioned syndromes were randomly divided into 3 groups (10 mice per group, water was administered to negative control group, steroid was given to positive control group, and cyclohexenone compounds of Antrodia camphorata was administered to experiment group), and the start time for the experiment was set as week zero. In addition, ten B6 mice (purchased from National Laboratory Animal Center, Taiwan) without SLE syndrome were normal mice served as blank group.
The blank group in Table 1 was B6 mice of no SLE syndrome, which received no treatment and normal diet for natural growth. NZB/WF1 female mice that were able to express SLE syndromes were served in negative control and positive control groups. Mice in the former group received normal water; in the latter were orally medicated with 1.25 mg/kg of prednisolone, the SLE drug. Mice in the experiment group were orally medicated with 50 mg/kg of cyclohexenone compounds from Example 1. […]
SLE patients develop renal inflammation and damage, which cause leakage of protein from kidney into the fluid. […] Ten μl of urine was assayed with Bio-Rad Protein Assay Dye Reagent Concentrate (Bio-Rad Laboratories, USA) and read under […] with an ELISA analyzer to determine the protein concentration with a standard curve.

[2] = tested on: female NZB/WF1 SLE mice; assay: Titers of anti-dsDNA antinuclear antibodies in plasma of female NZB/WF1 SLE mice (Mouse Anti-dsDNA IgG ELISA kit); type: in vivo
Method: as §1, §2
The blank group in Table 1 was B6 mice of no SLE syndrome, which received no treatment and normal diet for natural growth. NZB/WF1 female mice that were able to express SLE syndromes were served in negative control and positive control groups. Mice in the former group received normal water; in the latter were orally medicated with 1.25 mg/kg of prednisolone, the SLE drug. Mice in the experiment group were orally medicated with 50 mg/kg of cyclohexenone compounds from Example 1. The mice were fed with the abovementioned substances once per day starting at 23 weeks of age, and this period of time was referred to as the first week of this experiment. […]
The titers of dsDNA antinuclear antibodies were determined in this study to assess the effects of cyclohexenone compounds from Antrodia camphorata on SLE mice. […]

Row | SMILES | proteinuria level ([1]; experiment group, 50 mg/kg oral once per day, after 6 weeks of experiment) [mg/dL] | fold increase of proteinuria level versus before experiment ([1]; experiment group, 50 mg/kg oral once per day, after 6 weeks, negative control 2.76-fold) [fold] | titers of anti-dsDNA antinuclear antibodies compared with negative group ([2]; experiment group, 50 mg/kg oral once per day, during 8 weeks of experiment) | titer of antinuclear antibodies decreased to ([2]; experiment group, 50 mg/kg oral once per day, week 8) [%] | proteinuria level ([1]; positive control group, prednisolone 1.25 mg/kg oral once per day, after 6 weeks) [mg/dL] | titer of anti-dsDNA antinuclear antibodies decreased to ([2]; positive group, prednisolone 1.25 mg/kg oral once per day, week 8)
1 | COC1=C(OC)C(O)C(C/C=C(\C)CC/C=C(\C)CCC=C(C)C)C(C)C1=O (stereo not drawn) [4-hydroxy-2,3-dimethoxy-6-methyl-5(3,7,11-trimethyl-dodeca-2,6,10-trienyl)-cyclohex-2-enone] | 118.2 | 1.3 | significantly lower titers of anti-dsDNA antinuclear antibodies than those in the negative group | 34 |  | 
2 | C[C@]12C=CC(=O)C=C1CC[C@@H]1[C@@H]2[C@@H](O)C[C@@]2(C)[C@H]1CC[C@]2(O)C(=O)CO [prednisolone, reference compound] |  |  |  |  | 32.6 | around 50%
